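Values below derive from 48-hour exposures of cells grown in 96-well plates, with endpoints linearly interpolated between the two concentrations bracketing the appropriate inhibition level. Abbreviation: GI50, concentration required for 50% inhibition of growth. TGI marks complete inhibition of growth.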
Tests used:
Test in all cases: NCI tumour cell line growth inhibition, 48 h
[1] = test system: HL-60(TB) leukemia
[2] = test system: HT29 colon
[3] = test system: K-562 leukemia
[4] = test system: MDA-MB-231 breast
[5] = test system: MDA-N
[6] = test system: T-47D breast
[7] = test system: U251 CNS
[8] = test system: DLD-1 colon
[9] = test system: DMS 273 small cell lung
[10] = test system: KM20L2 colon
[11] = test system: XF 498 CNS
[12] = test system: M19-MEL melanoma
[13] = test system: MCF7 breast

Oc1ccc2ccccc2c1N=Nc1ccc(N=Nc2ccccc2)cc1
TGI [1]: 12 µM
TGI [2]: > 100 µM
TGI [3]: > 100 µM
TGI [4]: > 100 µM
TGI [5]: > 100 µM
TGI [6]: > 100 µM
TGI [7]: > 100 µM

C#CCCCCC#CC1CCCC1C1=CC(=O)c2ccccc21 (configuration not stated)
TGI [8]: 24.3 µM
TGI [9]: 11.9 µM
TGI [1]: 3.93 µM
TGI [2]: 15.9 µM
TGI [3]: 8.14 µM
TGI [10]: 22 µM
TGI [7]: 16.9 µM
TGI [11]: 20.8 µM

CCCNCC(O)/C=C/[Si](C)(C)C (configuration not stated) (tested in a mixture with another compound)
TGI [8]: > 100 µM
TGI [1]: > 100 µM
TGI [2]: > 100 µM
TGI [3]: > 100 µM
TGI [10]: > 100 µM
TGI [12]: > 100 µM
TGI [7]: > 100 µM
TGI [11]: 74.8 µM

CCCCCCc1ccc(O)cc1O
TGI [8]: > 100 µM
TGI [9]: > 100 µM
TGI [1]: > 100 µM
TGI [2]: > 100 µM
TGI [3]: > 100 µM
TGI [10]: > 100 µM
TGI [12]: 98 µM
TGI [13]: > 100 µM
TGI [7]: > 100 µM
TGI [11]: > 100 µM

Cc1ccccc1N=Nc1ccc(N=Nc2c(O)ccc3cc(S(=O)(=O)O)cc(S(=O)(=O)O)c23)c(C)c1
TGI [1]: > 100 µM
TGI [2]: > 100 µM
TGI [3]: > 100 µM
TGI [13]: > 100 µM
TGI [4]: > 100 µM
TGI [7]: > 100 µM

NC(=O)c1nnc2cc(F)c(F)cc2c1N
TGI [1]: > 100 µM
TGI [2]: > 100 µM
TGI [3]: > 100 µM
TGI [13]: > 100 µM
TGI [4]: > 100 µM
TGI [5]: > 100 µM
TGI [6]: > 100 µM
TGI [7]: 69.7 µM

C/C=C1/CN2CC[C@@H]3c4ccccc4N4[C@H](C(=O)OC)[C@H]1C[C@H]2[C@]34/C=C/C1=COC[C@@H]2[C@H]1C[C@H]1c3c(c4ccccc4n3C)C[C@@H]2N1C
TGI [2]: 5.92 µM
TGI [3]: 25 µM
TGI [13]: 8.67 µM
TGI [4]: 8.93 µM
TGI [5]: 5.41 µM
TGI [6]: 8.68 µM
TGI [7]: 7.65 µM

CC(=O)O[C@H]1CC[C@]2(C)[C@H]3C(=O)C=C4[C@@H]5C[C@](C)(C(=O)N6CCCNCC6)CC[C@]5(C)CC[C@@]4(C)[C@]3(C)CC[C@H]2C1(C)C
GI50 [2]: 1.5 µM
TGI [2]: 3.17 µM
GI50 [3]: 1.27 µM
TGI [3]: 4.27 µM
GI50 [7]: 1.6 µM
TGI [7]: 3.37 µM

O=[N+]([O-])/C=C/c1cccc(F)c1
TGI [2]: 10.3 µM
TGI [13]: 3 µM
TGI [4]: 38.2 µM
TGI [5]: 14 µM
TGI [6]: 72.5 µM
TGI [7]: 16.4 µM

O=C(N/N=C/c1cc(Br)cc(Br)c1[O-])c1ccccc1O.O=C(N/N=C/c1cc(Br)cc(Br)c1[O-])c1ccccc1O.[Cl-].[Fe+3]
TGI [1]: 6.54 µM
TGI [2]: 13.2 µM
GI50 [3]: 2.59 µM
TGI [3]: 5.63 µM
TGI [10]: 13.9 µM
TGI [7]: 4.91 µM

C[n+]1ccccc1/C=C/c1ccc2c(c1)OCO2
TGI [1]: > 10 µM
TGI [2]: > 10 µM
TGI [3]: > 10 µM
TGI [13]: > 10 µM
TGI [4]: > 10 µM
TGI [5]: > 10 µM
TGI [6]: > 10 µM
TGI [7]: > 10 µM

Cc1c2ccccc2nc2[nH]c3ccncc3c12
TGI [1]: > 100 µM
TGI [2]: > 100 µM
TGI [3]: > 100 µM
TGI [4]: > 100 µM
TGI [5]: > 100 µM
TGI [6]: > 100 µM
TGI [7]: > 100 µM

— PubChem BioAssay (NCI)
